Measurements from patent US10421944B2, “Method for producing neural stem cells using synthetic peptide” (TOAGOSEI CO. LTD., priority 2015, dated 2019).

System: CCD1079SK cells (fibroblasts from human skin tissue)
Assay: Test to evaluate neural stem cell-inducing activity (fluorescent immunostaining of nestin and GFAP in fibroblasts)
Type: cell-based
Conditions: peptide 10 μM, 18 days of culture at 30° C., compared with peptide-free group
Experimental: Neural stem cells were induced (prepared) from fibroblasts using the neural stem cell-inducing synthetic peptide (Sample 1) obtained in Example 1 above. The test cells were CCD1079SK cells (ATCC™ CRL-2097), a cultured cell line of fibroblasts from human skin tissue. The test details were as follows.
Previously frozen CCD1079SK cells were seeded to a cell density of 1.2×10^5/well in a cell culture chamber (also called a slide chamber). The cell culture chamber had one well per slide (culture area 19 mm×44 mm). Specifically, the thawed CCD1079SK cells were suspended in ordinary Dulbecco's modified Eagle's medium (DMEM) to prepare a cell suspension with a cell density of 1.2×10^5/mL, and 1 mL of this cell suspension was seeded in the aforementioned cell culture chamber. The DMEM medium was ordinary DMEM (Wako Pure Chemical Industries, Ltd., Cat. No. 043-30085) with 10% FBS, 100 units/mL penicillin and 100 μg/mL streptomycin added thereto. The CCD1079SK cells seeded in the cell culture chamber were pre-cultured for several hours (about six hours) until the cells adhered to the bottom of the culture container in the incubator under conditions of 5% CO2, 37° C. […]

LLLLLLVGLTAPAGKKRTLRKNDRKKR [Sample 1]
expression of neural stem cell marker protein nestin (cells with increased quantities of nestin protein) (confocal laser microscopy (FIG. 1 vs FIG. 3)): more cells with increased quantities of nestin protein | expression of neural stem cell marker protein GFAP (cells with increased quantities of GFAP) (confocal laser microscopy (FIG. 2 vs FIG. 4)): more cells with increased quantities of nestin protein and GFAP
